Data: patent publication US20090325959A1 (priority 2008, published 2009)
Where two headings read alike, the source gives them in different places.

What was measured:
ROCK2 = target: T1, ROCK2 (Homo sapiens, UniProt O75116); experiment: Rho kinase inhibition assay (IMAP fluorescence polarization), ROCK2; type: biochemical;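 note: kinase reaction started with 10 µM ATP and run 60 min at room temperature, then phosphorylated substrate captured on IMAP beads for 30 min and fluorescence polarization read in mP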
T1 construct: purchased Upstate/Chemicon 14-451
T1 sequence (O75116 11-552 limits assumed): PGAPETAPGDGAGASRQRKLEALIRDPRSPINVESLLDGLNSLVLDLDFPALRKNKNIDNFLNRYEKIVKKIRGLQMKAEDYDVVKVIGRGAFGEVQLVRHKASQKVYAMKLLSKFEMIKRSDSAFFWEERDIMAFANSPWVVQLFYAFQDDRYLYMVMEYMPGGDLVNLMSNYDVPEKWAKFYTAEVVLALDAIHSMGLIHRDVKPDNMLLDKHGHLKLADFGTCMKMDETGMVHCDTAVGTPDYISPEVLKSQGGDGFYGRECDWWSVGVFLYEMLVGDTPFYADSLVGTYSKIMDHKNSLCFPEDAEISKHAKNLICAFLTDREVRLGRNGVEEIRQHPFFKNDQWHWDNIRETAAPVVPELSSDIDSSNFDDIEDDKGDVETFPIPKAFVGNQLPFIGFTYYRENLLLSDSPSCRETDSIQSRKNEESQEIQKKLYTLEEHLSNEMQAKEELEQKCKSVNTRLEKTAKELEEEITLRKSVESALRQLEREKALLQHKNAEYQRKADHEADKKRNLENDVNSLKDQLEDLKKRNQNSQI
Procedure: (§1) Following the pre-incubation, 10 μM ATP was added to initiate the reaction. After 60 minutes at room temperature, Molecular Devices IMAP™ binding solution was added to bind phosphorylated substrate. After 30 minutes of incubation in the presence of the IMAP™ beads, the fluorescence polarization was read and the ratio was reported as mP. IC50 values for compounds and EC50 values for ATP were calculated using the Prism software from Graphpad.

ROCK1 = target: T2, ROCK1 (Homo sapiens, UniProt Q13464); experiment: Rho kinase inhibition assay (IMAP fluorescence polarization), ROCK1; type: biochemical;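 note: kinase reaction run 60 min at room temperature, then phosphorylated substrate captured on IMAP beads for 30 min, with fluorescence polarization read in mP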
T2 construct: purchased Upstate/Chemicon 14-601
T2 sequence (Q13464 17-535 limits assumed): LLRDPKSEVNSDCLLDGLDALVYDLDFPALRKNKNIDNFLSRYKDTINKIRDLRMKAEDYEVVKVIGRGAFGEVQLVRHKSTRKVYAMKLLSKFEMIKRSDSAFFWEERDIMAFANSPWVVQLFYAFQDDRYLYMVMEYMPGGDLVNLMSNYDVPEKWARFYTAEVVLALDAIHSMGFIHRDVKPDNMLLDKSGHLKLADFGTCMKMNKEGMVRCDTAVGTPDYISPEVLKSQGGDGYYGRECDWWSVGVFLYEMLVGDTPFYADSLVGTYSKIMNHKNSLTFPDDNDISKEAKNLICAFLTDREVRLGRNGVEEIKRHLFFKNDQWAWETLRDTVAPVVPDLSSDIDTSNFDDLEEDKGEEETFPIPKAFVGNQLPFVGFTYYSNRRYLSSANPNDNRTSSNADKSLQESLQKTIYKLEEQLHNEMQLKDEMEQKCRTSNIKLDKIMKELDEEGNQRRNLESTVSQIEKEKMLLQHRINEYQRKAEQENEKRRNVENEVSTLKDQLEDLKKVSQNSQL
Procedure: as §1

[1] = 10 μM ATP, read-out: ROCK2 Ki, Avg

Q: What does the source list for CC(C)(C)OC(=O)COc1cccc(CN2CCC[C@H](Nc3ccc4[nH]ncc4c3)C2)c1 [Compound 1.187, (S)-tert-butyl 2-(3-((3-(1H-indazol-5-ylamino)piperidin-1-yl)methyl)phenoxy)acetate]?
A: Ki (ROCK2; [1]): 0.0173 µM; Ki (ROCK1; Avg, 10 μM ATP): 0.296 µM

Q: With Cc1ccc(CN2CC[C@@H](Nc3ccc4[nH]ncc4c3)C2)cc1 [Compound 1.242, (R)-N-(1-(4-methylbenzyl)pyrrolidin-3-yl)-1H-indazol-5-amine] as the compound, how does the Ki (ROCK2; [1]) read?
A: 0.0175 µM

Q: And the Ki (ROCK1; Avg, 10 μM ATP)?
A: 0.0714 µM

Q: Which Ki (ROCK2; [1]) does the source give for CSc1nccc(CN2CC[C@@H](Nc3cccc4cnccc34)C2)n1 [Compound 2.082, (R)-N-(1-((2-(methylthio)pyrimidin-4-yl)methyl)pyrrolidin-3-yl)isoquinolin-5-amine] here?
A: 0.009 µM

Q: And the Ki (ROCK2; average Ki, read-out: ROCK2 Ki)?
A: 0.009 µM

Q: What about the Ki (ROCK1; Avg, 10 μM ATP) of the same compound?
A: 0.132 µM

Q: What about the Ki (ROCK1; average Ki) of the same compound?
A: 0.132 µM

Q: How did the Ki (ROCK2; [1]) turn out when OCCn1ccc2cc(CN3CCC[C@@H](Nc4ccc5[nH]ncc5c4)C3)ccc21 [Compound 1.268, (R)-2-(5-((3-(1H-indazol-5-ylamino)piperidin-1-yl)methyl)-1H-indol-1-yl)ethanol] was run?
A: 0.0407 µM

Q: What about the Ki (ROCK1; Avg, 10 μM ATP) of the same compound?
A: 0.404 µM

Q: What does the source list for Cc1ccc(CN2CC[C@@H](Nc3cccc4cnccc34)C2)cc1OCC(=O)OC(C)(C)C [Compound 2.071, (R)-tert-butyl 2-(5-((3-(isoquinolin-5-ylamino)pyrrolidin-1-yl)methyl)-2-methylphenoxy)acetate]?
A: Ki (ROCK2; [1]): 0.0119 µM; Ki (ROCK1; Avg, 10 μM ATP): 0.0212 µM

Q: How did the Ki (ROCK2; [1]) turn out when NC(=O)c1cccc(CN2CCC[C@@H](Nc3ccc4[nH]ncc4c3)C2)c1 [Compound 1.221, (R)-3-((3-(1H-indazol-5-ylamino)piperidin-1-yl)methyl)benzamide] was run?
A: 0.03 µM

Q: What about the Ki (ROCK1; Avg, 10 μM ATP) of the same compound?
A: 0.264 µM

Q: How did the Ki (ROCK2; [1]) turn out when CS(=O)(=O)c1ccc(CN2CCC[C@@H](Nc3ccc4[nH]ncc4c3)C2)cc1 [Compound 1.205, (R)-N-(1-(4-(methylsulfonyl)benzyl)piperidin-3-yl)-1H-indazol-5-amine] was run?
A: 0.0464 µM

Q: And the Ki (ROCK1; Avg, 10 μM ATP)?
A: 0.498 µM

Q: Which Ki (ROCK2; [1]) does the source give for N#Cc1cccc(CN2CCC(Nc3cccc4cnccc34)C2)c1 (stereo not drawn) [Compound 2.007, 3-((3-(isoquinolin-5-ylamino)pyrrolidin-1-yl)methyl)benzonitrile] here?
A: 0.179 µM

Q: And the Ki (ROCK1; Avg, 10 μM ATP)?
A: 0.39 µM

Q: With Cc1cccc(CN2CCC[C@@H](Nc3ccc4[nH]ncc4c3)C2)c1 [Compound 1.192, (R)-N-(1-(3-methylbenzyl)piperidin-3-yl)-1H-indazol-5-amine] as the compound, how does the Ki (ROCK2; [1]) read?
A: 0.0377 µM

Q: What about the Ki (ROCK1; Avg, 10 μM ATP) of the same compound?
A: 0.158 µM

Q: How did the Ki (ROCK2; [1]) turn out when c1cn(-c2ccc(CN3CCC[C@H](Nc4ccc5[nH]ncc5c4)C3)cc2)cn1 [Compound 1.255] was run?
A: 0.359 µM

Q: What about the Ki (ROCK1; Avg, 10 μM ATP) of the same compound?
A: 3.56 µM

Q: With CCOC(=O)c1ccc(CN2CCC[C@H](Nc3ccc4[nH]ncc4c3)C2)cc1 [Compound 1.216, (S)-ethyl 4-((3-(1H-indazol-5-ylamino)piperidin-1-yl)methyl)benzoate] as the compound, how does the Ki (ROCK2; [1]) read?
A: 0.403 µM

Q: And the Ki (ROCK1; Avg, 10 μM ATP)?
A: 1.89 µM

Q: How did the Ki (ROCK2; [1]) turn out when CC(=O)NCCOc1cccc(CN2CCC[C@H](Nc3ccc4[nH]ncc4c3)C2)c1 [Compound 1.218, (S)-N-(2-(3-((3-(1H-indazol-5-ylamino)piperidin-1-yl)methyl)phenoxy)ethyl)acetamide] was run?
A: 0.0307 µM

Q: What about the Ki (ROCK1; Avg, 10 μM ATP) of the same compound?
A: 0.402 µM

Q: How did the Ki (ROCK2; [1]) turn out when CN(c1cccc(CN2CCC[C@H](Nc3ccc4[nH]ncc4c3)C2)c1)S(C)(=O)=O [Compound 1.198, (S)-N-(3-((3-(1H-indazol-5-ylamino)piperidin-1-yl)methyl)phenyl)-N-methylmethanesulfonamide] was run?
A: 0.0247 µM

Q: And the Ki (ROCK1; Avg, 10 μM ATP)?
A: 0.585 µM

Q: Which Ki (ROCK2; [1]) does the source give for Cc1ccc(CN2CC[C@@H](Nc3cccc4cnccc34)C2)cc1OCC(=O)O [Compound 2.073, (R)-2-(5-((3-(isoquinolin-5-ylamino)pyrrolidin-1-yl)methyl)-2-methylphenoxy)acetic acid] here?
A: 0.0042 µM

Q: What about the Ki (ROCK2; average Ki, read-out: ROCK2 Ki) of the same compound?
A: 0.0042 µM

Q: And the Ki (ROCK1; Avg, 10 μM ATP)?
A: 0.0127 µM

Q: And the Ki (ROCK1; average Ki)?
A: 0.0127 µM

Q: With FC(F)(F)c1cccc(CN2CC[C@@H](Nc3cccc4cnccc34)C2)c1 [Compound 2.049, (R)-N-(1-(3-(trifluoromethyl)benzyl)pyrrolidin-3-yl)isoquinolin-5-amlne] as the compound, how does the Ki (ROCK2; [1]) read?
A: 0.048 µM

Q: And the Ki (ROCK1; Avg, 10 μM ATP)?
A: 0.113 µM

Q: Which results are given for CC(C)(C)OC(=O)NCc1cccc(CN2CCC[C@@H](Nc3ccc4[nH]ncc4c3)C2)c1 [Compound 1.140, (R)-tert-butyl 3-((3-(1H-indazol-5-ylamino)piperidin-1-yl)methyl)benzylcarbamate]?
A: Ki (ROCK2; [1]): 0.0329 µM; Ki (ROCK1; Avg, 10 μM ATP): 0.236 µM

Q: For OCCn1cc(CN2CC[C@@H](Nc3cccc4cnccc34)C2)c2ccccc21 [Compound 2.072, (R)-2-(3-((3-(isoquinolin-5-ylamino)pyrrolidin-1-yl)methyl)-1H-indol-1-yl)ethanol], which Ki (ROCK2; [1]) is on record?
A: 0.0044 µM

Q: And the Ki (ROCK2; average Ki, read-out: ROCK2 Ki)?
A: 0.0044 µM

Q: And the Ki (ROCK1; Avg, 10 μM ATP)?
A: 0.0075 µM

Q: And the Ki (ROCK1; average Ki)?
A: 0.0075 µM

Q: CS(=O)(=O)c1ccc(CN2CC[C@@H](Nc3ccc4[nH]ncc4c3)C2)cc1 [Compound 1.244, (R)-N-(1-(4-(methylsulfonyl)benzyl)pyrrolidin-3-yl)-1H-indazol-5-amine] was tested. Which Ki (ROCK2; [1]) did it give?
A: 0.139 µM

Q: And the Ki (ROCK1; Avg, 10 μM ATP)?
A: 0.683 µM

Q: Which results are given for Cc1c(CN2CCC[C@H](Nc3ccc4[nH]ncc4c3)C2)cccc1NS(C)(=O)=O [Compound 1.274, (S)-N-(3-((3-(1H-indazol-5-ylamino)piperidin-1-yl)methyl)-2-methylphenyl)methanesulfonamide]?
A: Ki (ROCK2; [1]): 0.0107 µM; Ki (ROCK1; Avg, 10 μM ATP): 0.223 µM

Q: For OCCCOc1cccc(CN2CCC[C@@H](Nc3ccc4[nH]ncc4c3)C2)c1 [Compound 1.231, (R)-3-(3-((3-(1H-indazol-5-ylamino)piperidin-1-yl)methyl)phenoxy)propan-1-ol], which Ki (ROCK2; [1]) is on record?
A: 0.0603 µM

Q: And the Ki (ROCK1; Avg, 10 μM ATP)?
A: 0.305 µM

Q: Which results are given for O=C(OCCOc1cccc(CN2CCC[C@H](Nc3ccc4[nH]ncc4c3)C2)c1)c1ccccc1 [Compound 1.224, (S)-2-(3-((3-(1H-indazol-5-ylamino)piperidin-1-yl)methyl)phenoxy)ethyl benzoate]?
A: Ki (ROCK2; [1]): 0.0775 µM; Ki (ROCK1; Avg, 10 μM ATP): 0.487 µM

Q: What does the source list for CCSc1ccc(CN2CCC[C@@H](Nc3ccc4[nH]ncc4c3)C2)cc1 [Compound 1.189, (R)-N-(1-(4-(ethylthio)benzyl)piperidin-3-yl)-1H-indazol-5-amine]?
A: Ki (ROCK2; [1]): 0.0343 µM; Ki (ROCK1; Avg, 10 μM ATP): 0.188 µM

Q: NCc1ccc(CN2CCC[C@H](Nc3ccc4[nH]ncc4c3)C2)cc1 [Compound 1.201, (S)-N-(1-(4-(aminomethyl)benzyl)piperidin-3-yl)-1H-indazol-5-amine] was tested. Which Ki (ROCK2; [1]) did it give?
A: 0.23 µM

Q: What about the Ki (ROCK1; Avg, 10 μM ATP) of the same compound?
A: 1.59 µM

Q: Which results are given for CS(=O)(=O)c1cccc(CN2CCC[C@H](Nc3ccc4[nH]ncc4c3)C2)c1 [Compound 1.182, (S)-N-(1-(3-(methylsulfonyl)benzyl)piperidin-3-yl)-1H-indazol-5-amine]?
A: Ki (ROCK2; [1]): 0.0306 µM; Ki (ROCK1; Avg, 10 μM ATP): 0.408 µM

Q: Which Ki (ROCK2; [1]) does the source give for Cc1ccc(CN2CC[C@@H](Nc3cccc4c(=O)[nH]ccc34)C2)cc1OCCO [Compound 2.093, (R)-5-(1-(3-(2-hydroxyethoxy)-4-methylbenzyl)pyrrolidin-3-ylamino)isoquinolin-1(2H)-one] here?
A: 0.128 µM

Q: What about the Ki (ROCK1; Avg, 10 μM ATP) of the same compound?
A: 0.576 µM

Q: What does the source list for Clc1ccc(CN2CCC[C@H](Nc3ccc4[nH]ncc4c3)C2)cc1Cl [Compound 1.080, (S)-N-(1-(3,4-dichlorobenzyl)piperidin-3-yl)-1H-indazol-5-amine]?
A: Ki (ROCK2; [1]): 0.0152 µM; Ki (ROCK1; Avg, 10 μM ATP): 0.131 µM

Q: Which results are given for CCN(CC)C(=O)Nc1cccc(CN2CCC[C@@H](Nc3ccc4[nH]ncc4c3)C2)c1 [Compound 1.267, (R)-3-(3-((3-(1H-indazol-5-ylamino)piperidin-1-yl)methyl)phenyl)-1,1-diethylurea]?
A: Ki (ROCK2; [1]): 0.0239 µM; Ki (ROCK1; Avg, 10 μM ATP): 0.0988 µM
